# Entries after “also recorded” stand apart in the source; their conditions may differ. Where a SMILES comes first, the peptide text is derived from it. Bridges are numbered along the chain shown (N, C = ends).
# Target: T1, Apime-ASTC-R (Apis mellifera, UniProt A0A7M7GNE5)
# T1 sequence (A0A7M7GNE5 1-423): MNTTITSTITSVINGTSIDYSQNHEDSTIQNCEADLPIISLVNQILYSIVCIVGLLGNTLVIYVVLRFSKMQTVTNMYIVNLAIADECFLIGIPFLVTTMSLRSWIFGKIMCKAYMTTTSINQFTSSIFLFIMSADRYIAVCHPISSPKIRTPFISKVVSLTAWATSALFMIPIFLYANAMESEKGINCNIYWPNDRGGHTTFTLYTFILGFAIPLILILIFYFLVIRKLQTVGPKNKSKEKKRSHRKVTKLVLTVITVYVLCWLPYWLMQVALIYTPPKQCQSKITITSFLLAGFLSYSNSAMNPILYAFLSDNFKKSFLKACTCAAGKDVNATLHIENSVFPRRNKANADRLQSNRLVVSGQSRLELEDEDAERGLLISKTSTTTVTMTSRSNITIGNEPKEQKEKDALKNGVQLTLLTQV
# Assay: Intracellular cAMP reporter assay, HEK293 cells expressing Apime-ASTC-R
# Assay type: cell-based
# Conditions: CRE-luciferase, IBMX, 10^-14 to 10^-3 M, Fig 5D-E, ASTCC effect at high concentrations (>10 μM)
# Protocol: For intracellular cAMP measurements, cells were bathed in trypsin EDTA and collected, then suspended in fresh DMEM. Transfections with pRK5-ApimeAstC-R, pRK5-ApimeAstA-R or empty pRK5 vector were carried out in 15 ml Falcon tubes. Transfection medium for HEK293 cells was prepared using the Lipofectamine LTX kit (Invitrogen) with 2.5 ml Opti-MEM® (Gibco), 12.5 μl Plus™ Reagent and 4 μg of ApimeASTC-R (or ApimeASTA-R, or empty) expression construct, and 2 μg of CRE(6x)-Luc plasmid. The luciferase ORF, downstream of six tandem repeats of a cyclic AMP responsive element (CRE), in front of a minimum collate promoter, was used as a reporter gene (this reporter plasmid has been used by others)
# We followed a previousy published protocol: HEK293 cells in Dulbecco's Modified Eagles Medium nutrient mixture F12-Ham (DMEM/F12, Sigma–Aldrich) supplemented with 10% heat-inactivated fetal bovine serum (Gibco), 100 IU/ml penicillin, 100 μg/ml streptomycin (Gibco) were maintained in an incubator at 37°C with constant supply of 5% CO2, until they reached 60–80% confluence. Cells were then bathed in trypsin EDTA (Gibco) until rounded. The flask was then tapped to loosen the cells, which were subsequently washed off with 5 ml DMEM/F12. The cells were gently centrifuged at 800 rpm for 5 minutes and carefully suspended in fresh DMEM, which was divided in two for transfection with receptor constructs or empty vectors. After 5 min at room temperature, 30 μl LTX was added. After an incubation period of 30 min at room temperature, the DNA/LTX mix was added to the cells. The cells were then aliquoted (100 μl per well) into a clear bottom 96-well plate (Greiner bio-one #655090) and incubated overnight (37°C, 5% CO2).
# Prior to measuring cAMP, the cell medium was removed by carefully inverting the 96-well plate on filter paper and quickly replaced with 100 μl of DMEM/F12 without phenol red (Invitrogen), but containing 200 μM 3-isobutyl-1-methylxanthine (IBMX, Sigma–Aldrich) to prevent cAMP breakdown, as well as drugs to be tested. In each experiment, some wells were used to measure basal levels of cAMP in the cells (negative control), while others were used to measure cAMP levels in cells exposed to 10 μM forskolin analogue (NKH-477, Sigma Aldrich, positive control). […] All cells were incubated at 37°C and 5% CO2 for 3–4 h to allow transcription of the reporter gene before 100 μl of freshly reconstituted Steadylite Plus™ substrate (PerkinElmer) was added to each well. The 96-well plate was then placed in the dark for 15 min before light emission resulting from luciferase enzymatic activity was recorded. Measurements lasting 0.2 s/well were taken every 55 s for 10 cycles using a FLUOstar Omega microplate reader (BMG Labtech). Results were analyzed by means of the Omega software packages and further processed by Excel and GraphPad Prism softwares. In order to facilitate comparisons across experiments, bioluminescence levels are expressed relative to those in mock-transfected cells (transfected with the vector devoid of the receptor sequence) untreated with NKH-477, which were arbitrarily set at 100.
# To test this prediction, we expressed the two receptors separately in HEK293 cells together with the luciferase reporter gene, downstream of the cAMP response element, CRE, but without exogenous G proteins.
Structure (SMILES),"effect on cAMP levels (bioluminescence), in words","effect on cAMP levels (bioluminescence), in words (listed as ASTCC)","effect on cAMP levels (bioluminescence), in words (listed as ASTC)"
CC(C)[C@@H]1NC(=O)[C@H](C)NC(=O)[C@H](CC(N)=O)NC(=O)[C@H](Cc2ccccc2)NC(=O)[C@H](Cc2ccc(O)cc2)NC(=O)[C@@H](NC(=O)[C@H](CCCNC(=N)N)NC(=O)[C@H](Cc2c[nH]c3ccccc23)NC(=O)[C@H](Cc2ccc(O)cc2)NC(=O)[C@@H](NC(=O)[C@H](CCCNC(=N)N)NC(=O)CNC(=O)[C@H](CCCCN)NC(=O)[C@H](C)NC(=O)[C@H](CCC(N)=O)NC(=O)CN)C(C)C)CSSC[C@@H](C(=O)N[C@@H](Cc2ccccc2)C(=O)O)NC(=O)[C@H]([C@@H](C)O)NC1=O [Apime-ASTCC] (H-GQAKGRVYWRCYFNAVTCF-OH; disulfide 11-18; N-terminus assumed),increased bioluminescence levels at high concentrations; also recorded: small increase in intracellular cAMP,increased cAMP levels in the cells slightly,–
CC(C)[C@@H]1NC(=O)[C@H](C)NC(=O)[C@H](CC(N)=O)NC(=O)[C@H](Cc2ccccc2)NC(=O)[C@H](C)NC(=O)[C@@H](NC(=O)[C@H](CCC(N)=O)NC(=O)[C@H](CCCCN)NC(=O)[C@H](Cc2c[nH]c3ccccc23)NC(=O)[C@H](Cc2ccc(O)cc2)NC(=O)[C@@H](N)CO)CSSC[C@@H](C(=O)N[C@@H](Cc2ccccc2)C(N)=O)NC(=O)[C@H](CO)NC1=O [Apime-ASTC] (H-SYWKQCAFNAVSCF-NH2; disulfide 6-13; N-terminus assumed),did not change the bioluminescence levels,–,failed to increase intracellular cAMP levels

# Reference: paper PMC4704819, “Honey Bee Allatostatins Target Galanin/Somatostatin-Like Receptors and Modulate Learning: A Conserved Function?” (PLoS ONE, 2016)
